The values that follow are results of earlier work, collected in PMC2096654 (Purinergic Signalling, 2006).

Structures are written as SMILES.

The target of the data set is T1, human A3 adenosine receptor (Homo sapiens, UniProt P0DMS8).
T1 sequence (P0DMS8 1-318): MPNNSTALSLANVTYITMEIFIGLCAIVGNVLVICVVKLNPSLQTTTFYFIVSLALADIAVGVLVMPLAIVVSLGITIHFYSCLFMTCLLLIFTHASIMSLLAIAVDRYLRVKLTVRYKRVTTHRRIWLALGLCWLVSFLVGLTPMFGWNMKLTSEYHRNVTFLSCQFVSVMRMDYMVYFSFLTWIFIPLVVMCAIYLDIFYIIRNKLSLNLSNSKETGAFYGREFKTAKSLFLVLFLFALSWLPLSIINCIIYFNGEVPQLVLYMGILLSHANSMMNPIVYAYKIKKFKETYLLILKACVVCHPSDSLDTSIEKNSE
The settings on record: reference agonist.

Turning to `CNC(=O)[C@H]1O[C@@H](n2cnc3c(NCc4cccc(I)c4)nc(Cl)nc32)[C@H](O)[C@@H]1O` [Cl-IB-MECA, 2-chloro-N^6-(3-iodobenzyl)-5′methylcarboxamidoadenosine], the “agonist behaviour at A3 receptor” value is “full agonist”.
